Where a name gives a salt, the structure may show the parent alone. Read-outs that look alike come from different tables or passages of the source.
Assays:
human LSD1(172-833) = human LSD1(172-833) (Homo sapiens (Human), UniProt O60341); experiment: Measurement of LSD1 inhibitory activity (time-resolved fluorescence, biotin-histone H3 mono methylated K4 peptide); type: biochemical; conditions: 60 min preincubation with enzyme at room temperature;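 also: after the compound–enzyme step, substrate reaction 5 min at room temperature in Tris-HCl pH 8.0 with BSA and DTT, halted by 2-PCPA, detected with europium anti-histone H3 antibody plus Streptavidin-XL665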
Method: A test compound dissolved in DMSO was added by to a reaction solution (50 mM Tris-HCl (pH 8.0), 0.1% BSA, 1 mM DTT) containing LSD1 enzyme, and the mixture was reacted at room temperature for 60 min. […] After reaction at room temperature for 5 min, 2-PCPA solution was added to terminate the reaction. A detection solution (800 mM potassium fluoride, 0.1% BSA) containing europium-labeled anti-histone H3 antibody (Wako Pure Chemical Industries, Ltd.) and Streptavidin-XL665 (Cisbio) was further added, and the mixture was left standing for 60 min. […] The LSD1 inhibitory rate (%) of the test compound was calculated by the following formula. inhibitory rate (%)=(1−(test compound count−blank)÷(control−blank))×100
The count of the LSD1 enzyme reaction mixture under compound non-addition conditions is indicated as control, and the count under compound non-addition and LSD1 enzyme non-addition conditions is indicated as blank. A concentration necessary for achieving 50% inhibitory rate was taken as ICH value.

MAO-A enzyme = MAO-A enzyme (Homo sapiens (Human), UniProt P21397); experiment: Measurement of MAO-A inhibitory activity (MAO-Glo Assay); type: biochemical
Method: The MAO-A inhibitory activity evaluation described below followed the protocol of MAO-Glo (registered trademark) Assay of Promega KK.
A test compound dissolved in DMSO was added to a reaction solution (100 mM HEPES (pH 7.5), 5% glycerol) containing MAO-A enzyme (Sigma-Aldrich Co. LLC.), and the mixture was reacted at room temperature for 15 min. MAO substrate (Promega KK) was added to start the reaction. After reaction at room temperature for 60 min, Luciferine detection reagent (Promega KK) was added to terminate the reaction. After reaction at room temperature for 20 min with stirring, the luminescence was measured by Envision (PerkinElmer). The MAO-A inhibitory rate (%) of the test compound was calculated by the following formula. inhibitory rate (%)=(1−(test compound count−blank)÷(control−blank))×100
The count of the MAO-A enzyme reaction mixture under compound non-addition conditions is indicated as control, and the count under compound non-addition and MAO-A enzyme non-addition conditions is indicated as blank.

MAO-B enzyme = MAO-B enzyme (Homo sapiens (Human), UniProt P27338); experiment: Measurement of MAO-B inhibitory activity (MAO-Glo Assay); type: biochemical
Method: The MAO-B inhibitory activity evaluation described below followed the protocol of MAO-Glo (registered trademark) Assay of Promega KK.
A test compound dissolved in DMSO was added to a reaction solution (100 mM HEPES (pH 7.5), 5% glycerol, 10% DMSO) containing MAO-B enzyme (Sigma-Aldrich Co. LLC.), and the mixture was reacted at room temperature for 15 min. MAO substrate (Promega KK) was added to start the reaction. After reaction at room temperature for 60 min, Luciferine detection reagent (Promega KK) (50 μL) was added to terminate the reaction. After reaction at room temperature for 20 min with stirring, the luminescence was measured by Envision (PerkinElmer). The MAO-B inhibitory rate (%) of the test compound was calculated by the following formula. inhibitory rate (%)=(1−(test compound count−blank)÷(control−blank))×100
The count of the MAO-B enzyme reaction mixture under compound non-addition conditions is indicated as control, and the count under compound non-addition and MAO-B enzyme non-addition conditions is indicated as blank.

[1] = Evaluation of blood cell number in mouse; type: in vivo; conditions: male ICR mice, oral, repeated 7 or 9 days
Method: All compounds were repeatedly administered to the mice at a dose of 1 mg/kg, 10 mg/kg or 100 mg/kg (body weight) for 7 or 9 days. One day after the final administration of the compound, the whole blood was collected.
Using Sysmex XT-1800i (Sysmex Corporation), the white blood cell number, red blood cell number, and platelet number in the collected whole blood per unit volume were measured. The influence of each compound on each blood cell number was determined by calculating the number with the mean of each blood cell number of the mouse without administration of the compound (0 mg/kg group), and the mean of each blood cell number in the whole blood of a mouse with the administration of the compound.

MAO-B enzyme, sequence (P27338 whole entry): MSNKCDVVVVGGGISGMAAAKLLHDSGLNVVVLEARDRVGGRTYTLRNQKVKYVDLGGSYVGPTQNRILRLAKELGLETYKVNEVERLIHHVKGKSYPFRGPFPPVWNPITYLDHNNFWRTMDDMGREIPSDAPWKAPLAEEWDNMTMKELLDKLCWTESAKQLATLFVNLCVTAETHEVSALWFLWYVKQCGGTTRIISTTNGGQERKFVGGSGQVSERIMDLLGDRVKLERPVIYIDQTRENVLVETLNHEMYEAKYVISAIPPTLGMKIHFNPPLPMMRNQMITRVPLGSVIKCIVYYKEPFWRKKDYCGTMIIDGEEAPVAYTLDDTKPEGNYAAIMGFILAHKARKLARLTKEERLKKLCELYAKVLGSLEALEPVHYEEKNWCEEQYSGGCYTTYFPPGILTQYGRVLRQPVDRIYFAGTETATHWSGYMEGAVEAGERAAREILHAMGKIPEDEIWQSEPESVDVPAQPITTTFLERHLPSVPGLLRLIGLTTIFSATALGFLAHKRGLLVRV
MAO-A enzyme, sequence (P21397 whole entry): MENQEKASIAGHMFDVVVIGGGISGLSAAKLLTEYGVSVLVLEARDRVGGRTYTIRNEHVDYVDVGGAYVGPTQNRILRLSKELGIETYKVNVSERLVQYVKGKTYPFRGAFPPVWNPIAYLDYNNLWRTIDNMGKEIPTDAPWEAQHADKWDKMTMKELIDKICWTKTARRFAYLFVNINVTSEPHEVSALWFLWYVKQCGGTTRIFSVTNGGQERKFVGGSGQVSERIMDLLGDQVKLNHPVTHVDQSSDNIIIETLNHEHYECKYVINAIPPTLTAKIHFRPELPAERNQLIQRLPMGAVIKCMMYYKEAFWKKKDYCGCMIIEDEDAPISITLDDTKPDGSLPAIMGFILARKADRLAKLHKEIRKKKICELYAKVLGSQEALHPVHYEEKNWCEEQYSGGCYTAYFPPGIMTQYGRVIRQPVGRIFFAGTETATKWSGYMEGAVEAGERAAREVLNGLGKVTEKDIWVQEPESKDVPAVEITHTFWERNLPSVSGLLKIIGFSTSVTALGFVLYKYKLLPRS

Compound | IC50 (human LSD1(172-833)) | IC50 (MAO-A enzyme) | IC50 (MAO-B enzyme) | further results
O=C(NC1CCC(F)(F)CC1)c1cc2c(c([C@@H]3C[C@H]3NCC3CCOCC3)c1)OCC2 (relative stereo) [Example 12, N-(4,4-difluorocyclohexyl)-7-(trans-2-((tetrahydro-2H-pyran-4-ylmethyl)amino)cyclopropyl)-2,3-dihydro-1-benzofuran-5-carboxamide hydrochloride] | < 0.1 µM | > 100 µM | > 100 µM | –
Cc1nnc(NC(=O)c2cc([C@@H]3C[C@H]3NCC3CCOCC3)cc3ccccc23)s1 (relative stereo) [Example 16, N-(5-methyl-1,3,4-thiadiazol-2-yl)-3-(trans-2-((tetrahydro-2H-pyran-4-ylmethyl)amino)cyclopropyl)-1-naphthamide dihydrochloride] | < 0.1 µM | > 100 µM | > 100 µM | –
Cc1nnc(NC(=O)c2csc([C@@H]3C[C@H]3NCC3CC3)c2)s1 (relative stereo) [Example 23, 5-(trans-2-((cyclopropylmethyl)amino)cyclopropyl)-N-(5-methyl-1,3,4-thiadiazol-2-yl)thiophene-3-carboxamide dihydrochloride] | – | > 100 µM | > 100 µM | –
O=C(NC1CCC(F)(F)CC1)c1csc([C@@H]2C[C@H]2NCC2CCOCC2)c1 (relative stereo) [Example 24, N-(4,4-difluorocyclohexyl)-5-(trans-2-((tetrahydro-2H-pyran-4-ylmethyl)amino)cyclopropyl)thiophene-3-carboxamide hydrochloride] | < 0.1 µM | > 100 µM | > 100 µM | –
O=C(NC1CCC(F)(F)CC1)c1csc([C@@H]2C[C@H]2NCC2CC2)c1 (relative stereo) [Example 30, 5-(trans-2-((cyclopropylmethyl)amino)cyclopropyl)-N-(4,4-difluorocyclohexyl)thiophene-3-carboxamide hydrochloride] | < 0.1 µM | > 100 µM | > 100 µM | –
O=C(NC1CCC(F)(F)CC1)c1csc([C@@H]2C[C@H]2NC2CCOCC2)c1 (relative stereo) [Example 31, N-(4,4-difluorocyclohexyl)-5-(trans-2-(tetrahydro-2H-pyran-4-ylamino)cyclopropyl)thiophene-3-carboxamide hydrochloride] | < 0.1 µM | > 100 µM | > 100 µM | –
Cn1cc(NC(=O)c2csc([C@@H]3C[C@H]3NC3CCC3)c2)cn1 (relative stereo) [Example 34, 5-(trans-2-(cyclobutylamino)cyclopropyl)-N-(1-methyl-1H-pyrazol-4-yl)thiophene-3-carboxamide hydrochloride] | < 0.1 µM | > 100 µM | > 100 µM | –
Cc1nnc(NC(=O)c2cc([C@@H]3C[C@H]3NCC3CCOCC3)cs2)s1 (relative stereo) [Example 58, N-(5-methyl-1,3,4-thiadiazol-2-yl)-4-(trans-2-((tetrahydro-2H-pyran-4-ylmethyl)amino)cyclopropyl)thiophene-2-carboxamide hydrochloride] | < 0.1 µM | > 100 µM | > 100 µM | –
Cc1sc([C@@H]2C[C@H]2NCC2CC2)cc1C(=O)NC1CCC(F)(F)CC1 (relative stereo) [Example 65, 5-(trans-2-((cyclopropylmethyl)amino)cyclopropyl)-N-(4,4-difluorocyclohexyl)-2-methylthiophene-3-carboxamide hydrochloride] | < 0.1 µM | 25 µM | > 100 µM | –
Cc1sc([C@@H]2C[C@H]2NCC2CCOCC2)cc1C(=O)NC1CCC(F)(F)CC1 (relative stereo) [Example 66, N-(4,4-difluorocyclohexyl)-2-methyl-5-(trans-2-((tetrahydro-2H-pyran-4-ylmethyl)amino)cyclopropyl)thiophene-3-carboxamide hydrochloride] | < 0.1 µM | 98 µM | > 100 µM | –
Cc1nnc(NC(=O)c2cc([C@@H]3C[C@H]3NCC3CC3)sc2C)s1 (relative stereo) [Example 69, 5-(trans-2-((cyclopropylmethyl)amino)cyclopropyl)-2-methyl-N-(5-methyl-1,3,4-thiadiazol-2-yl)thiophene-3-carboxamide dihydrochloride] | < 0.1 µM | 33 µM | > 100 µM | –
Cc1nnc(NC(=O)c2cc([C@@H]3C[C@H]3NCC3CCOCC3)sc2C)s1 (relative stereo) [Example 70, 2-methyl-N-(5-methyl-1,3,4-thiadiazol-2-yl)-5-(trans-2-((tetrahydro-2H-pyran-4-ylmethyl)amino)cyclopropyl)thiophene-3-carboxamide dihydrochloride] | < 0.1 µM | 10 µM | 23 µM | –
O=C(NC1CCCC1)c1csc(C2CC2NC2CCOCC2)c1 (single isomer, unassigned) [Example 38, hydrochloride] | < 0.1 µM | > 100 µM | > 100 µM | –
O=C(NC1CCCC1)c1csc(C2CC2NC2CCOCC2)c1 (single isomer, unassigned) [Example 39] | < 0.1 µM | 23 µM | > 100 µM | –
Cc1nnc(NC(=O)c2csc(C3CC3NCC3CCOCC3)c2)s1 (single isomer, unassigned) [Example 40, dihydrochloride] | < 0.1 µM | – | > 100 µM | IC50 (MAO-A enzyme; dihydrochloride): > 100 µM
Cc1nnc(NC(=O)c2csc(C3CC3NCC3CCOCC3)c2)s1 (single isomer, unassigned) [Example 41, dihydrochloride] | < 0.1 µM | – | – | IC50 (MAO-A enzyme; dihydrochloride): 67 µM
NC1CCC(N[C@@H]2C[C@H]2c2cc(C(=O)NC3CCC(F)(F)CC3)cs2)CC1 (single isomer, unassigned) [Example 45, dihydrochloride] | < 0.1 µM | > 100 µM | > 100 µM | –
O=C(NC1CCC(F)(F)CC1)c1csc([C@@H]2C[C@H]2NC2CCOCC2)c1 [Example 44, N-(4,4-difluorocyclohexyl)-5-((1R,2R)-2-(tetrahydro-2H-pyran-4-ylamino)cyclopropyl)thiophene-3-carboxamide hydrochloride] | < 0.1 µM | > 100 µM | 100 µM | –
N[C@H]1CC[C@H](N[C@@H]2C[C@H]2c2cc(C(=O)NC3CCC(F)(F)CC3)cs2)CC1 [Example 46, 5-((1R,2R)-2-(trans-(4-aminocyclohexyl)amino)cyclopropyl)-N-(4,4-difluorocyclohexyl)thiophene-3-carboxamide dihydrochloride] | < 0.1 µM | > 100 µM | > 100 µM | –
O=C(NC1CCOCC1)c1csc([C@@H]2C[C@H]2NC2CCC(F)(F)CC2)c1 [Example 47, 5-((1R,2R)-2-((4,4-difluorocyclohexyl)amino)cyclopropyl)-N-(tetrahydro-2H-pyran-4-yl)thiophene-3-carboxamide hydrochloride] | < 0.1 µM | > 100 µM | > 100 µM | –
Cc1nnc(NC(=O)c2csc([C@@H]3C[C@H]3NC3CCN(C4CC4)CC3)c2)s1 [Example 48, 5-((1R,2R)-2-((1-cyclopropylpiperidin-4-yl)amino)cyclopropyl)-N-(5-methyl-1,3,4-thiadiazol-2-yl)thiophene-3-carboxamide dihydrochloride] | < 0.1 µM | 31 µM | > 100 µM | –
Cc1nnc(NC(=O)c2csc([C@@H]3C[C@H]3NC3CCOCC3)c2)s1 [Example 49, N-(5-methyl-1,3,4-thiadiazol-2-yl)-5-((1R,2R)-2-(tetrahydro-2H-pyran-4-ylamino)cyclopropyl)thiophene-3-carboxamide hydrochloride] | < 0.1 µM | > 100 µM | > 100 µM | –
Cc1ncc(NC(=O)c2csc([C@@H]3C[C@H]3NC3CCOCC3)c2)s1 [Example 50, N-(2-methyl-1,3-thiazol-5-yl)-5-((1R,2R)-2-(tetrahydro-2H-pyran-4-ylamino)cyclopropyl)thiophene-3-carboxamide hydrochloride] | < 0.1 µM | > 100 µM | > 100 µM | –
Cc1nnc(NC(=O)c2cc([C@@H]3C[C@H]3NCC3CCOCC3)cs2)s1 [Example 72, N-(5-methyl-1,3,4-thiadiazol-2-yl)-4-((1S,2R)-2-((tetrahydro-2H-pyran-4-ylmethyl)amino)cyclopropyl)thiophene-2-carboxamide hydrochloride] | < 0.1 µM | – | – | –
Cc1nnc(NC(=O)c2cc([C@@H]3C[C@H]3NCC3CC3)c(C)s2)s1 [Example 95, 4-((1S,2R)-2-((cyclopropylmethyl)amino)cyclopropyl)-5-methyl-N-(5-methyl-1,3,4-thiadiazol-2-yl)thiophene-2-carboxamide fumarate] | – | – | – | Platelets, Mean ([1]; 1 mg/kg): 1352 10^3 cells; Red blood cells, Mean ([1]; 1 mg/kg): 888 10^4 cells; White blood cells, Mean ([1]; 1 mg/kg): 422 10 cells; Platelets, Mean ([1]; 10 mg/kg): 1482 10^3 cells; Red blood cells, Mean ([1]; 10 mg/kg): 898 10^4 cells; White blood cells, Mean ([1]; 10 mg/kg): 408 10 cells
Cc1sc(C(=O)Nc2cnn(C)c2)cc1[C@@H]1C[C@H]1NC1CCC1 [Example 104, 4-((1S,2R)-2-(cyclobutylamino)cyclopropyl)-5-methyl-N-(1-methyl-1H-pyrazol-4-yl)thiophene-2-carboxamide dihydrochloride] | – | – | – | Platelets, Mean ([1]; 1 mg/kg, dihydrochloride): 1370 10^3 cells; Red blood cells, Mean ([1]; 1 mg/kg, dihydrochloride): 870 10^4 cells; White blood cells, Mean ([1]; 1 mg/kg, dihydrochloride): 373 10 cells; Platelets, Mean ([1]; 10 mg/kg, dihydrochloride): 1404 10^3 cells; Red blood cells, Mean ([1]; 10 mg/kg, dihydrochloride): 872 10^4 cells; White blood cells, Mean ([1]; 10 mg/kg, dihydrochloride): 397 10 cells

— patent US9487511B2, “Cyclopropanamine compound and use thereof” (Takeda Pharmaceutical Company Limited, priority 2014, dated 2016)
